Laboratory results as given in PMC10001067, “Xanthine Oxidase Inhibitory Peptides from Larimichthys polyactis: Characterization and In Vitro/In Silico Evidence” (Foods, 2023).
No end group written: not given here.

Columns and labels:
xanthine oxidase (XO) [1] = biological target: T1, xanthine oxidase (XO) (Bos taurus, UniProt P80457); test: XOI activity IC50 in vitro (uric acid formation, absorbance 290 nm); type: biochemical, bovine milk; conditions: for IC50: synthesized peptides, 0.2 M potassium phosphate buffer pH 7.4, XO 0.07 U/mL, xanthine 0.48 mM, 37 °C, absorbance 290 nm, mean ± SD, n = 3, SD; for XOI activity at 15 mg/mL: peptide at 15 mg/mL
T1 construct: xanthine oxidase (X1875-5UN, derived from bovine milk); purchased Solarbio Co., Ltd. (Beijing, China) X1875-5UN; host or cells: bovine milk
Protocol: The XOI activity levels of SYCHs were determined and calculated with the methods reported by Liu and Wei with slight modifications. Xanthine was dissolved in 0.2 M potassium phosphate buffer (pH = 7.4) to a concentration of 0.48 mM. In addition, samples (SYCH, UF-1, UF-2, and UF-3) were also dissolved in 0.2 M potassium phosphate buffer (pH = 7.4). Next, 50 μL of sample solution and 50 μL of XO solution (0.07 U/mL) were mixed and incubated at 37 °C for 5 min, then 150 μL of xanthine solution was added to the mixture to continue the reaction. The absorbance of formed uric acid in the samples was monitored at 290 nm with a multifunctional microplate reader (Tecan Co., Ltd., Männedorf, Switzerland). The results were recorded for 10 min. The assay was performed in triplicate. The formula for the calculation of XOI activity is as follows: […]=(dA/dt)blank−(dA/dt)sample/(dA/dt)blank × 100% where (dA/dt)blank and (dA/dt)sample are the reaction rate without and with the test sample inhibitor, respectively. IC50 values were calculated from the mean values of data. XOI activity IC50 (the concentration of active compound required to observe 50% XO inhibition) was determined by plotting the percentage inhibition as a function of concentration of the test compound.

xanthine oxidase (XO) [2] = conditions: peptide from Skipjack tuna hydrolysates; read-out: XOI activity of IC50; cited from earlier work
Source text: Seven peptides (WDDMEKIW, APPERKYSVW, IADRMQKELT, LNSADLIK, LSNLGIVI, IGALRAVA, and HHTFYNELR) derived from SYC were obtained and their activity values, hemolysis, and toxicity were predicted. Their basic data (AA sequence, MW, PI, predicted activity values, hemolysis, toxicity, and IC50 for XOI activity) are summarized in Table 3. […] Only WW8 and AW10 were predicted to have higher potential physiological activity, and all were non-hemolytic except LSNLGIVI and LNSADLIK. The r ...

[3] = Dissolution of synthesized peptides in water; type: physicochemical
XO = conditions: concentration of 0.25 mg/mL; cited from earlier work
Protocol: Nongonierma reported that Trp inhibited XO by 70.3 ± 1.1% at a concentration of 0.25 mg/mL. Li claimed that relatively lower IC50 values were mainly located in the peptides containing Trp residue, reporting that the IC50 values of peptides WDD, WDQW, PPKNW, WPPKN, and WSREEQE were lower than those of peptides HCPF and ADIYTE, and that these ...

T1 sequence (P80457 whole entry): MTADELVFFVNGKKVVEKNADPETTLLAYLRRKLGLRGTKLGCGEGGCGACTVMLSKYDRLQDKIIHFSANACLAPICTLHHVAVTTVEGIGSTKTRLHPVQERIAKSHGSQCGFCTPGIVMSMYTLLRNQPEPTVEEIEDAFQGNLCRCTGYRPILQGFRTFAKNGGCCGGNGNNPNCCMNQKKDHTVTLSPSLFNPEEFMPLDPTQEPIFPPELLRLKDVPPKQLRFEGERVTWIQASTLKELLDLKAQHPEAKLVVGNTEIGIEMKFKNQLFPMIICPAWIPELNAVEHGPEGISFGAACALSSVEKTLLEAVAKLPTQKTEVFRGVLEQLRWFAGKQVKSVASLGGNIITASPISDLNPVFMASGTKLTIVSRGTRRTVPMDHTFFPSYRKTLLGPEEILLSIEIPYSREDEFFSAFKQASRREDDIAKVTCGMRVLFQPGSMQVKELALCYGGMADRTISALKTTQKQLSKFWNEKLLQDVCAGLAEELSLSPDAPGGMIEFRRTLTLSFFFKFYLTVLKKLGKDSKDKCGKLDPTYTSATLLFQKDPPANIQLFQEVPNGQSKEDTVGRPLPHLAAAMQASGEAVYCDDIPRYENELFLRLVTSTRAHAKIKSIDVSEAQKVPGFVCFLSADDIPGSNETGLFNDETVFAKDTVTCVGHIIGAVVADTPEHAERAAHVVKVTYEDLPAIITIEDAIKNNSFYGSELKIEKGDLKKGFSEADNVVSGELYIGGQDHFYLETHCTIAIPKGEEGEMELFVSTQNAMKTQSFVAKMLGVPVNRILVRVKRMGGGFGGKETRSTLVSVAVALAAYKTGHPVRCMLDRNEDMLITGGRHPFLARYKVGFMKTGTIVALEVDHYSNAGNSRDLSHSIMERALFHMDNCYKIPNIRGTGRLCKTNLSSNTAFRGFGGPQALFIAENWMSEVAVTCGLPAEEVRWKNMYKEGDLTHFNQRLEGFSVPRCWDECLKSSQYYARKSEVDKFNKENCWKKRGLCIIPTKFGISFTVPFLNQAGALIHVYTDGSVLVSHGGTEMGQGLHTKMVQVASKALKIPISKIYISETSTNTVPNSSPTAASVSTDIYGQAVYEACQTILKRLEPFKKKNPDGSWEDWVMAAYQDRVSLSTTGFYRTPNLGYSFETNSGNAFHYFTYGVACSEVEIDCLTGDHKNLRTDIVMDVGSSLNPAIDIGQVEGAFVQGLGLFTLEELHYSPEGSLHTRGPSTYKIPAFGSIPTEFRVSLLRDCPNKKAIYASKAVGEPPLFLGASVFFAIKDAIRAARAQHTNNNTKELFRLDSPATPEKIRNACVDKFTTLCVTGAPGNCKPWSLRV

APPERKYSVW [APPERKYSVW, Ala-Pro-Pro-Glu-Arg-Lys-Tyr-Ser-Val-Trp]
IC50 (xanthine oxidase (XO) [1]): 5.86 ± 0.02 mM

ACECD [XOI peptide from Skipjack tuna hydrolysates]
IC50 (xanthine oxidase (XO) [2]): 13.4 mM

HHTFYNELR [peptide derived from SYC]
Dissolution in water at 3 mg/mL [3]: did not even dissolve in water

IGALRAVA [peptide derived from SYC]
Dissolution in water at 3 mg/mL [3]: did not even dissolve in water

N[C@@H](Cc1c[nH]c2ccccc12)C(=O)O [Trp]
Inhibition of XO (XO): 70.3 ± 1.1%

IADRMQKELT [peptide derived from SYC]
XOI activity at 15 mg/mL (xanthine oxidase (XO) [1]): no XOI activity

LSNLGIVI [peptide derived from SYC]
Dissolution in water at 3 mg/mL [3]: did not even dissolve in water

WDDMEKIW [WDDMEKIW, Trp-Asp-Asp-Met-Glu-Lys-Ile-Trp]
IC50 (xanthine oxidase (XO) [1]): 3.16 ± 0.03 mM

LNSADLIK [peptide derived from SYC]
XOI activity at 15 mg/mL (xanthine oxidase (XO) [1]): no XOI activity
